Reference: patent publication US20260083864A1, “CONTRAST AGENTS FOR USE IN DIAGNOSTIC COMPUTED TOMOGRAPHY IMAGING” (Bayer Aktiengesellschaft, priority 2022, published 2026)

Assays:
[1] = Water solubility in aqueous buffer; details: aqueous buffer 10 mM Tris-HCl, pH 7.4, 20° C.
Protocol: The solid compounds were added stepwise to the buffer solution. More substance is added once all the suspended material is dissolved until an equilibrium between undissolved and dissolved substance is reached. The suspension was mixed using a shaker (Heidolph Reax 2000) and treated 5 min in an ultrasound bath (Bandelin, Sonorex Super RK255H).

[2] = Relaxivity measurements at 1.41 T in water; type: physicochemical; details: 37° C., normalized to Gd
Protocol: (§1) Relaxivity measurements at 1.41 T were performed using a MiniSpec mq60 spectrometer (Bruker Analytik, Karlsruhe, Germany) operating at a resonance frequency of 60 MHz and a temperature of 37° C. The T1 relaxation times were determined using the standard inversion recovery (IR) method with a fixed relaxation delay of at least 5×T1. The variable inversion time (TI) was calculated automatically by the standard software of the MiniSpec mq60 (8 steps). The T2 measurements were performed by using a Carr-Purcell-Meiboom-Gill (CPMG) pulse sequence, applying a relaxation delay of at least 5×T1.
Each relaxivity measurement was performed using three different Gd concentrations (3 concentrations between 0.05 and 2 mM). […] Human plasma preparation: For each experiment fresh blood was taken from a volunteer using 10 mL citrate-tubes (Sarstedt S-Monovette 02.1067.001, 10 mL, Citrate). The 10 mL citrate-tubes were carefully inverted 10 times to mix blood and anticoagulant and centrifuged for 15 min at 1811 g at RT (Eppendorf, Centrifuge 5810R).
(§2) The relaxivities n (where i=1, 2) were calculated based on the measured relaxation rates Ri in water and plasma: […]

[3] = Relaxivity measurements at 1.41 T in human plasma; type: physicochemical; details: 37° C., normalized to Gd
Protocol: as §1, with “The” for “Relaxivity measurements at 1.41 T were performed using a MiniSpec mq60 spectrometer (Bruker Analytik, Karlsruhe, Germany) operating at a resonance frequency of 60 MHz and a temperature of 37° C. The”
Each relaxivity measurement was performed using three different Gd concentrations (3 concentrations between 0.05 and 2 mM).
as §2

OATP1B1 = biological target: T1, OATP1B1 (Homo sapiens, UniProt Q9Y6L6); assay: Uptake into stable transfected OATP1B1 HEK 293 cells; type: cell-based; details: for Uptake into OATP1B1-HEK 293 cells: 40 min incubation, relative to RC1 (Gd-EOB-DTPA); for Inhibition Rifampicine: uptake into OATP1B1-HEK 293 cells
T1 sequence (Q9Y6L6 1-691): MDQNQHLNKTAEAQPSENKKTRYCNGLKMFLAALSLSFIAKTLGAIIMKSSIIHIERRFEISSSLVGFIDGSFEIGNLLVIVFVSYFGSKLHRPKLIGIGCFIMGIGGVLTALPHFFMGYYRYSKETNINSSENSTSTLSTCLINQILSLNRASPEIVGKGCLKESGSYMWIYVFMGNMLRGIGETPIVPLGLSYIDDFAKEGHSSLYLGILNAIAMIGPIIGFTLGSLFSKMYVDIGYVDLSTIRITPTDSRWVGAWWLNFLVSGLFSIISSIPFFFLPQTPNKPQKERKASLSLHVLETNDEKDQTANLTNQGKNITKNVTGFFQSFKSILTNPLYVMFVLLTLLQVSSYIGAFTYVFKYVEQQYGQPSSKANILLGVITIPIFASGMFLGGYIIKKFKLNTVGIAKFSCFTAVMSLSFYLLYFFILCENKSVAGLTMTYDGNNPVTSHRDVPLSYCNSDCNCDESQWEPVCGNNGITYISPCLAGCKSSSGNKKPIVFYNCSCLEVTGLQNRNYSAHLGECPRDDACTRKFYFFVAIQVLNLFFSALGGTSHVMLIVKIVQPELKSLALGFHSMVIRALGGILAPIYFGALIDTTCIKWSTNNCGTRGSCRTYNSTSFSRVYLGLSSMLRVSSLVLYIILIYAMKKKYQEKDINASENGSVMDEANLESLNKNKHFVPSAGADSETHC
Protocol: (§3) Cryopreserved cells were shortly thawed in water bath and diluted in 10 mL warm culture medium (37° C.). After medium change the cells were grown for 3d in a 25 cm^2 cell culture flask. After 3 to 5d the cells were transferred into 75 cm^2 flasks. […] All test items were prepared in transport buffer at a final concentration of 100 M from stock solutions (180 to 500 mM concentration). The OATP1B1 HEK 293 cells were incubated with test solutions (test item in transport buffer 500 L) for 40 min on a thermoshaker without shaking (PHMP, Fa. Grant Bio). Triplicates were performed for each test item. After incubation the cells were washed with 2 mL of cold PBS (+) buffer (Dulbeccos PBS+, Fa. Gibco). […] As a reference standard Gd-EOB-DTPA (gadoxetate) is used in the same well plate.

OATP1B3 = biological target: T2, OATP1B3 (Homo sapiens, UniProt Q9NPD5); assay: Uptake into stable transfected OATP1B3 HEK 293 cells; type: cell-based; details: for Uptake into OATP1B3-HEK 293 cells: 40 min incubation, relative to RC1 (Gd-EOB-DTPA); for Inhibition Rifampicine: uptake into OATP1B3-HEK 293 cells
T2 sequence (Q9NPD5 1-702): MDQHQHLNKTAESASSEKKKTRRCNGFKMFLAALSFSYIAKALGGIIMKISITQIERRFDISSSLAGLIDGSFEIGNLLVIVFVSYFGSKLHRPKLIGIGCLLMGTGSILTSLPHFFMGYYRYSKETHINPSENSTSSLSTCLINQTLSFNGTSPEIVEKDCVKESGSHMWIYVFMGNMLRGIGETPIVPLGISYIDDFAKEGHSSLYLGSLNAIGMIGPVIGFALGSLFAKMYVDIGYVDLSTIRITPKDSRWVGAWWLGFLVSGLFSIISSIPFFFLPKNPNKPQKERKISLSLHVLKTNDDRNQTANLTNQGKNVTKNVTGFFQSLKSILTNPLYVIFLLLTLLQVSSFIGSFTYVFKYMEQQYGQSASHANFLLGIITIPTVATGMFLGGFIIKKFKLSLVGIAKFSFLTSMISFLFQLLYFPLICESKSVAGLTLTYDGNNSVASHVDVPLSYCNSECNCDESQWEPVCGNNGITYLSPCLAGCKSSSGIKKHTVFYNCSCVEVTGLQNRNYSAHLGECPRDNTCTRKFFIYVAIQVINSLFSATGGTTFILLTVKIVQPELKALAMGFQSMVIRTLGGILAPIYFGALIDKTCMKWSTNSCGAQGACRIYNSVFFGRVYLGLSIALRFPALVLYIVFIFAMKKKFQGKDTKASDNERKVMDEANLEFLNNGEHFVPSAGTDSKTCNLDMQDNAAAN
Protocol: as §3, with “100 µM” for “100 M”, “The OATP1B3” for “The OATP1B1”, “500 μL)” for “500 L)”

[4] = Partition coefficient (log P butanol/buffer); type: physicochemical; details: 1-butanol / 50 mM Tris-HCl, pH 7.4, room temperature
[5] = system: freshly isolated rat hepatocytes; assay: Uptake into freshly isolated rat hepatocytes; details: for Uptake rat hepatocytes: 100 μmol Gd/L, 10 min, 37° C., relative to RC1 (Gd-EOB-DTPA); for Inhibition Rifampicine: rat hepatocyte uptake, test item and Rifampicine 1:1, each 100 μM

Compound	Solubility [1]	r1 water [2]	r1 human plasma [3]	Uptake into OATP1B1-HEK 293 cells (OATP1B1)	Inhibition Rifampicine (OATP1B1)	Uptake into OATP1B3-HEK 293 cells (OATP1B3)	Inhibition Rifampicine (OATP1B3)	Log P (partition coefficient butanol/buffer) [4]	Uptake rat hepatocytes [5]	Inhibition Rifampicine [5]
CCOCCOCCOc1ccc(C[C@@H](C(=O)O)N2CCN(CC(=O)[O-])CCN(CC(=O)[O-])CCN(CC(=O)[O-])CC2)cc1.[Gd+3] [Example 3, gadolinium 2,2′,2″-{10-[(1S)-1-carboxy-2-{4-[2-(2-ethoxyethoxy)ethoxy]phenyl}ethyl]-1,4,7,10-tetraazacyclododecane-1,4,7-triyl}triacetate]	>331 mM	4.3 L/mmol/s	6.5 L/mmol/s	63 % of RC1	29 % inhibition	18 % of RC1	89 % inhibition	−1.61	47 % of RC1	96 % inhibition
CCOCCOCCOCCOc1ccc(CC(C(=O)O)N2CCN(CC(=O)[O-])CCN(CC(=O)[O-])CCN(CC(=O)[O-])CC2)cc1.[Gd+3] (centres unmarked) [Example 10, gadolinium 2,2′,2″-{10-[1-carboxy-2-(4-{2-[2-(2-ethoxyethoxy)ethoxy]ethoxy}phenyl)ethyl]-1,4,7,10-tetraazacyclododecane-1,4,7-triyl}triacetate]	>272 mM	4.5 L/mmol/s	6.6 L/mmol/s	87 % of RC1	43 % inhibition	13 % of RC1	95 % inhibition	−1.70	49 % of RC1	90 % inhibition
CCOCCOCCOCCOc1ccc(CC(C(=O)O)N2CCN(CC(=O)[O-])CCN(C(COC)C(=O)[O-])CCN(CC(=O)[O-])CC2)cc1.[Gd+3] (centres unmarked) [Example 13, gadolinium 2-{7-[1-carboxy-2-(4-{2-[2-(2-ethoxyethoxy)ethoxy]ethoxy}phenyl)ethyl]-4,10-bis(carboxylatomethyl)-1,4,7,10-tetraazacyclododecan-1-yl}-3-methoxypropanoate]	67 mM	5.2 L/mmol/s	7.0 L/mmol/s	109 % of RC1	30 % inhibition	31 % of RC1	93 % inhibition	−1.53	49 % of RC1	86 % inhibition
CCCCOc1ccc(CC(C(=O)O)N2CCN(CC(=O)[O-])CCN(CC(=O)[O-])CCN(CC(=O)[O-])CC2)cc1.[Gd+3] (centres unmarked) [Example 14, gadolinium 2,2′,2″-{10-[2-(4-butoxyphenyl)-1-carboxyethyl]-1,4,7,10-tetraazacyclododecane-1,4,7-triyl}triacetate]	5 mM	4.3 L/mmol/s	13.3 L/mmol/s	856 % of RC1	98 % inhibition	69 % of RC1	97 % inhibition	−0.38	96 % of RC1	98 % inhibition
CCOCCOCCOc1ccc(CCC[C@H](C(=O)O)N2CCN([C@@H](CO)C(=O)[O-])CCN([C@@H](CO)C(=O)[O-])CCN([C@@H](CO)C(=O)[O-])CC2)cc1.[Gd+3] [Example 18, gadolinium (2S,2'S,2″'S)-2,2′,2″-{10-[(1R)-1-carboxy-4-{4-[2-(2-ethoxyethoxy)ethoxy]phenyl}butyl]-1,4,7,10-tetraazacyclododecane-1,4,7-triyl}tris(3-hydroxypropanoate)]	>354 mM	5.5 L/mmol/s	7.7 L/mmol/s	–	76 % inhibition	–	96 % inhibition	−1.11	75 % of RC1	91 % inhibition
CCOCCOCCOc1ccc(CCC[C@H](C(=O)O)N2CCN([C@H](CO)C(=O)[O-])CCN([C@H](CO)C(=O)[O-])CCN([C@H](CO)C(=O)[O-])CC2)cc1.[Gd+3] [Example 19, gadolinium (2R,2′R,2″R)-2,2′,2″-{10-[(1R)-1-carboxy-4-{4-[2-(2-ethoxyethoxy)ethoxy]phenyl}butyl]-1,4,7,10-tetraazacyclododecane-1,4,7-triyl}tris(3-hydroxypropanoate)]	>410 mM	5.3 L/mmol/s	9.0 L/mmol/s	–	92 % inhibition	–	96 % inhibition	−0.95	92 % of RC1	92 % inhibition
